Results as given in ChEMBL document CHEMBL1201862, “PubChem BioAssay data set” (2004).
Blank lines part the entries; values can stand above or below the compound they belong to. The source made the active and inactive calls.

Assays:
[1] = molecular target: T1, Short transient receptor potential channel 4 (Mus musculus, UniProt Q9QUQ5); assay: calcium entry via TRPC4 opening agents – cell-based, HEK293 TRPC4/mu-opioid, Fluo-4 calcium, dose response (AID 434937); type: functional
T1 sequence (Q9QUQ5 whole entry): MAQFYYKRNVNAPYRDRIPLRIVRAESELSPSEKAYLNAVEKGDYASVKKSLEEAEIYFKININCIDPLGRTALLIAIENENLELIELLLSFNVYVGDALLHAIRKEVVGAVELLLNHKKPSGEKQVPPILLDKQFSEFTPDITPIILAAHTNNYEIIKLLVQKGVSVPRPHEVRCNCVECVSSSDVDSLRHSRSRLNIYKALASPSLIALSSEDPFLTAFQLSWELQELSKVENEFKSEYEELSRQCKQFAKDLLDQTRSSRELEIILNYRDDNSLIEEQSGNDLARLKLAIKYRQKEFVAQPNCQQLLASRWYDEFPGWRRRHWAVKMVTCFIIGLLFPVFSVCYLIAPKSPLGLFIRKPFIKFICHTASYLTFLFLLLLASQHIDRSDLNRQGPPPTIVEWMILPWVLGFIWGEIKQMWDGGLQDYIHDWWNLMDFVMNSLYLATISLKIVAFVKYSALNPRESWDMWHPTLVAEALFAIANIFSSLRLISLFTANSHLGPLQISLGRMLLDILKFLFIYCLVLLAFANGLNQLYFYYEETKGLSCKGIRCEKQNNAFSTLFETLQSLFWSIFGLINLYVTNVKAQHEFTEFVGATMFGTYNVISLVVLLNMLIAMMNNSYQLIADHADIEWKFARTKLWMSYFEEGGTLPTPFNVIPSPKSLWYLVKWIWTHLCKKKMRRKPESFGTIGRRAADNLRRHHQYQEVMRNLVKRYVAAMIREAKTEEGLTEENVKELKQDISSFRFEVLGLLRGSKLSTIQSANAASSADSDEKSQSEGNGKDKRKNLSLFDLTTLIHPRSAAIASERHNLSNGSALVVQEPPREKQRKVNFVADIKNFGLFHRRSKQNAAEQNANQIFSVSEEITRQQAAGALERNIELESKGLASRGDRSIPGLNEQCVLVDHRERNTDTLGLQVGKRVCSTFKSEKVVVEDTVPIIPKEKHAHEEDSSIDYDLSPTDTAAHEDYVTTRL

Cytochrome P450 2C19 = Cytochrome P450 2C19 (Homo sapiens, UniProt P33261); assay: Cytochrome panel assay with activity outcomes. Panel member name: p450-cyp2c19 Compounds with AC50 equal or less than 10 uM are considered active; type: functional; details: read-out: AC50
[2] = molecular target: T1, Short transient receptor potential channel 4; assay: potentiation of DAMGO-evoked TRPC4 calcium signal – cell-based, HEK293 TRPC4/mu-opioid, Fluo-4 calcium, EC20 DAMGO, dose response (AID 434941); type: functional
Cytochrome P450 2D6 = Cytochrome P450 2D6 (Homo sapiens, UniProt P10635);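 note: CYP2D6 member of a cytochrome P450 panel assay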
Coagulation factor XII = molecular target: T2, Coagulation factor XII (Homo sapiens, UniProt P00748); assay: activated coagulation factor XII inhibitor potency, concentration-effect curve, cell-free (AID 716); type: functional
T2 sequence (P00748 whole entry): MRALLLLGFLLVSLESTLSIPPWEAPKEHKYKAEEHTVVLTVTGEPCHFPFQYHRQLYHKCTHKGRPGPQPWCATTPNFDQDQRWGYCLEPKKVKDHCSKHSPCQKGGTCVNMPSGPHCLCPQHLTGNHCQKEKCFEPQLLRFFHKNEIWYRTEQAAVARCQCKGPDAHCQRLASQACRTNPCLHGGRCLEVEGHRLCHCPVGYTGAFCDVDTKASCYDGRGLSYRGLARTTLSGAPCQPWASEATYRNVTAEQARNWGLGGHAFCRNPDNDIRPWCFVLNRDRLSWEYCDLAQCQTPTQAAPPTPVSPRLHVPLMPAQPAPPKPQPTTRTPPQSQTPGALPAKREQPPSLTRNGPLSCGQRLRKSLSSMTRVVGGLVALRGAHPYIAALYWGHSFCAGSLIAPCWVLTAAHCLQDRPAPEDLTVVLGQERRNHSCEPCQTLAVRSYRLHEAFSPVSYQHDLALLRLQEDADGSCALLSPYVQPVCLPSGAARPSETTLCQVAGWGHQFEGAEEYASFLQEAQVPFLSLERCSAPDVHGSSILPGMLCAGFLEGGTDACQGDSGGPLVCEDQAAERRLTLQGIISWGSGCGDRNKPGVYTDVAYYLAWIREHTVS

Saccharomyces cerevisiae = assay: S. cerevisiae Caspase-1/ASC signal blockers IC50, NALP1 inhibitor project selectivity test (AID 488863); type: functional, organism-based
[3] = molecular target: NACHT, LRR and PYD domains-containing protein 1 (Homo sapiens, UniProt Q9C000); assay: NALP1 inhibitors in yeast, dose response, luminescent (AID 488860); type: functional
[4] = molecular target: Protein phosphatase methylesterase 1 (Homo sapiens, UniProt Q9Y570); assay: endogenous PME-1 and serine hydrolase inhibition – cell lysate, mouse brain cytosol, FP-rhodamine, gel ABPP, selectivity assay for PME-1 inhibitor project, dose response, panel member PME-1 Assay Panel member description: Inhibition of endogenously expressed PME-1 (AID 2366)
[5] = blockers of HIV-1 envelope-mediated cell-cell fusion – cherry-pick, dose response (AID 652057); type: functional, cell-based
[6] = molecular target: Neurotensin receptor type 1 (Homo sapiens, UniProt P30989); type: functional;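 note: Image-based confirmatory dose-response assay measuring agonist activity at NTR1; NTR1-expressing U2OS osteosarcoma cells imaged for beta-arrestin GFP spot formation; agonist potency where compounds increase beta-arrestin recruitment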
[7] = Trypanosoma cruzi growth suppression in host cells – NIH3T3 host cells, beta-gal luminescence, confirmation (AID 2044); type: functional, cell-based;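 note: intracellular parasites grown in NIH/3T3 mouse fibroblasts as host cells; luminescent beta-galactosidase reporter signal from transgenic T. cruzi replicating inside host cells; inhibitors lower the luminescence signal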
[8] = off-target signal loss in HeLa-CEM21 co-culture – HeLa F-luc CTL cells, cherry-picked, counter-screen for HIV-1 Env fusion inhibitor project, dose response (AID 652040); type: functional, cell-based;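 note: potency for signal decrease marking cytotoxic or nonspecific inhibition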
[9] = blockers of HIV-1 ZM109 envelope-driven cell-cell fusion – HeLa effector, CEM target cells, luciferase, cherry-pick, dose response (AID 652058); type: functional, cell-based;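 note: luciferase signal from HIV-1 Env mediated cell-cell fusion of effector and target cells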
[10] = molecular target: G-protein coupled receptor 55 (Homo sapiens, UniProt Q9Y2T6); assay: selective activators of receptor GPR55 – imaging, U2OS cells, beta-arrestin-GFP redistribution, primary screen (AID 1961); type: functional
HEK293 [11] = assay: optical interference in Abeta FP readout, dose response, artefact control for IDE activator project, biochemical, fluorescence polarization (AID 588442); type: functional, cell-based; details: Homo sapiens
Insulin-degrading enzyme [12] = molecular target: T3, Insulin-degrading enzyme (Homo sapiens, UniProt P14735); assay: recombinant IDE activation, cell-free – biochemical, fluorescence polarization, counter-screen for IDE activator project, dose response (AID 588681)
T3 sequence (P14735 whole entry): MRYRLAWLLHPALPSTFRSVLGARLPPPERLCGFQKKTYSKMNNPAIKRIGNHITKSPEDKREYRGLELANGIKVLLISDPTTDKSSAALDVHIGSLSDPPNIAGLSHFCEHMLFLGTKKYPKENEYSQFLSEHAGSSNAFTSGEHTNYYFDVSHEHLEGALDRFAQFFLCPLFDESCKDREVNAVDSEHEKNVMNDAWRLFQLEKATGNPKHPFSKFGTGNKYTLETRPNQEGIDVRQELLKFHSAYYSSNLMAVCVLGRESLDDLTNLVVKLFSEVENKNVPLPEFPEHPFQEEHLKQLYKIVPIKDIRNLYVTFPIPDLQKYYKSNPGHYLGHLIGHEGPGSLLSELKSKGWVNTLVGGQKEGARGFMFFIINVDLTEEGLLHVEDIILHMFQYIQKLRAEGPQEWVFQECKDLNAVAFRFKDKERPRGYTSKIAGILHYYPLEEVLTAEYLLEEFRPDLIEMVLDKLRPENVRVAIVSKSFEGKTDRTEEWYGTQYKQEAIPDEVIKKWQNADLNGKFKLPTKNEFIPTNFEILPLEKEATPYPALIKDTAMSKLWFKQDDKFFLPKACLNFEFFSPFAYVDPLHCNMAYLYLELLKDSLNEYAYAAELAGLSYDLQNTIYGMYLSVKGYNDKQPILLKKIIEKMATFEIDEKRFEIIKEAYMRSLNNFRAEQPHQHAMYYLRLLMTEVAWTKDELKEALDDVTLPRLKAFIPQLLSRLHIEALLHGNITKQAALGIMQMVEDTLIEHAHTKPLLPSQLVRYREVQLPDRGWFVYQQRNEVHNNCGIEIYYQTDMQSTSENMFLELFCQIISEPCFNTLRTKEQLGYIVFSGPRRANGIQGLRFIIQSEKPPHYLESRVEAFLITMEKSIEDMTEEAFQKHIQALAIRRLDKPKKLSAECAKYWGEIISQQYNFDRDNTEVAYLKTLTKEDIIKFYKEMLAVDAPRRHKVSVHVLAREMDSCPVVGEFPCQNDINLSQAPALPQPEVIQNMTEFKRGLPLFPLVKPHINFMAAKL

[13] = NIH3T3 cell viability loss – ATP luminescence, mouse fibroblasts, counter-screen, dose response (AID 2010); type: functional, cell-based;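 note: cells exposed to compound for about 90 hours before reading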
[14] = HIV-1 AD8 envelope cell-cell fusion blockers – cherry-pick, dose response (AID 652062); type: functional, cell-based;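 note: luciferase signal from cell-cell fusion driven by HIV-1 clade B AD8 Env; potency is for inhibitors of fusion seen as a drop in luminescence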
Insulin-degrading enzyme [15] = molecular target: T3, Insulin-degrading enzyme; assay: cellular IDE activation of Abeta substrate cleavage – fluorescence polarization, HEK cells, dose response (AID 588439); type: functional, cell-based
HEK293 [16] = assay: membrane integrity loss in HEK cells – cell-based, fluorescence, cytotoxicity control for IDE activator project, dose response (AID 588440); type: functional; details: Homo sapiens;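 note: cytotoxicity by LDH release measuring loss of membrane integrity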
[17] = viability loss in CEM21 cells – cell-based, CellTiter-Glo luminescence, cherry-picked, cytotoxicity control for viral fusion inhibitor project, dose response (AID 652042); type: functional;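 note: potency for signal decrease meaning cytotoxicity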
INS1 = assay: INS-1E survival protection against cytokine death – cell-based, luminescence, retest, dose response (AID 449756); type: functional; details: Rattus norvegicus;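 note: cell death triggered by IL-1 beta plus TNF-alpha plus IFN-gamma mixture; protective hits raise ATP signal compared with cytokine alone wells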

Sequence of Cytochrome P450 2C19 (P33261 whole entry): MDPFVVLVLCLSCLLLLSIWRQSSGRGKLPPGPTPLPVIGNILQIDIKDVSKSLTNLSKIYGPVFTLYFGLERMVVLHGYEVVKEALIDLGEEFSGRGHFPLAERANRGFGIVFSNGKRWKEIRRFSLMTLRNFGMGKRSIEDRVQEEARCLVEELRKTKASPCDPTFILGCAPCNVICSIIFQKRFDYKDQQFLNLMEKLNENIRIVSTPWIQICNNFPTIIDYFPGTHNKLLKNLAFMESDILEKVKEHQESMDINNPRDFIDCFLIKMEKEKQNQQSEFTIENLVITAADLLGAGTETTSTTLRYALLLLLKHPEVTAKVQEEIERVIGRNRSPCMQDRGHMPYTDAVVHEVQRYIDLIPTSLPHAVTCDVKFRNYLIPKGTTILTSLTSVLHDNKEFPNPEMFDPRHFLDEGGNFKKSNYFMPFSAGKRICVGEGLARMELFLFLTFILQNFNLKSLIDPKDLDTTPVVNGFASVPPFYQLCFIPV
Sequence of Protein phosphatase methylesterase 1 (Q9Y570 whole entry, the tested form may be a part): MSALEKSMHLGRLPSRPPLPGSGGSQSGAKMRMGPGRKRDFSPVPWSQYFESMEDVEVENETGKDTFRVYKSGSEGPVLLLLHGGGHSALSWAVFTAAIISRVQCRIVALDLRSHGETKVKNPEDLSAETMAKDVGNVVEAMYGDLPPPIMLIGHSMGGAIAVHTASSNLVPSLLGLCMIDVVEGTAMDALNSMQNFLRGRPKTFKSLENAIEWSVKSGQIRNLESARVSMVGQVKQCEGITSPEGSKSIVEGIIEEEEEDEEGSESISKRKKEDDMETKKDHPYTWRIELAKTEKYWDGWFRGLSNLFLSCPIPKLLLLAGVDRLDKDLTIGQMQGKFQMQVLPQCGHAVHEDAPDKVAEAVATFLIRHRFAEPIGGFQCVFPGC
Sequence of G-protein coupled receptor 55 (Q9Y2T6 whole entry): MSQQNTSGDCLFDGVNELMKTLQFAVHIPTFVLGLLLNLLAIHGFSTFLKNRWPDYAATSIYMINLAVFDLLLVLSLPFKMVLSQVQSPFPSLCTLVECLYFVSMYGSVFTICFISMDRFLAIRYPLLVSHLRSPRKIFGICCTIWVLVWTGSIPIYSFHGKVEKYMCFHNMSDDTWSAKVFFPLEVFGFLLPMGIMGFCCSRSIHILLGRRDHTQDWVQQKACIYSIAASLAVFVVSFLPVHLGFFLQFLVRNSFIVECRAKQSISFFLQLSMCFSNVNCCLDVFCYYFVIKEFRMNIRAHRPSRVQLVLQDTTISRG
Sequence of NACHT, LRR and PYD domains-containing protein 1 (Q9C000 1-1212 limits assumed): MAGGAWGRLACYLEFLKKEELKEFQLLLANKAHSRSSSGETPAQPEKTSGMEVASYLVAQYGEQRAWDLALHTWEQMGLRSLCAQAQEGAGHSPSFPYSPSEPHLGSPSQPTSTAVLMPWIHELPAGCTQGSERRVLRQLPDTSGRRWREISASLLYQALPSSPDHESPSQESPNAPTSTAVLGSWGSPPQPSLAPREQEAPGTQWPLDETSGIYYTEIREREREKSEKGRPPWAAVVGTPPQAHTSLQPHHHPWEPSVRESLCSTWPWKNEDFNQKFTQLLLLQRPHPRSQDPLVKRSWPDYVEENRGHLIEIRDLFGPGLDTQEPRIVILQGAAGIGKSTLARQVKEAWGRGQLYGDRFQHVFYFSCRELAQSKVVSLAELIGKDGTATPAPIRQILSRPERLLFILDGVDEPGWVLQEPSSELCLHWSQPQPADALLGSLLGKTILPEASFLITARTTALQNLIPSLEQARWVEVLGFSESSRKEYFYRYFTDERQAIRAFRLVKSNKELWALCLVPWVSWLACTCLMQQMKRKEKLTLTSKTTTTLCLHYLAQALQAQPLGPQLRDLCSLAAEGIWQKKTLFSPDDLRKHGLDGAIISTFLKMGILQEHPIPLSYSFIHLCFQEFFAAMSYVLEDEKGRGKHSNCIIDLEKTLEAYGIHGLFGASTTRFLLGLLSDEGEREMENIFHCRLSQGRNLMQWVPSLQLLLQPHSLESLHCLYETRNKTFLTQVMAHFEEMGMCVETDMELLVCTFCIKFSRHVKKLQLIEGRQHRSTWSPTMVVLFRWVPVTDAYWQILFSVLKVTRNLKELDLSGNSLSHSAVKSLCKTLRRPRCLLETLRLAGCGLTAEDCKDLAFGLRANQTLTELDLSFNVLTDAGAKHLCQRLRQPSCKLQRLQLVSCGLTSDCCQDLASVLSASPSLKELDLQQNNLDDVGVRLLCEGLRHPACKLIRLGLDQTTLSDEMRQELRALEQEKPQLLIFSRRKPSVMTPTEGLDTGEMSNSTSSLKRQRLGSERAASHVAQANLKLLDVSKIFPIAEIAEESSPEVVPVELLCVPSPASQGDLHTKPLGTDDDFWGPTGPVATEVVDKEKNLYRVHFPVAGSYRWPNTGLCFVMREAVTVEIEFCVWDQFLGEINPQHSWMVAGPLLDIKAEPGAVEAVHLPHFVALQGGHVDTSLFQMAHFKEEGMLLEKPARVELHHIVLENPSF
Sequence of NACHT, LRR and PYD domains-containing protein 1 (Q9C000 1213-1473 limits assumed): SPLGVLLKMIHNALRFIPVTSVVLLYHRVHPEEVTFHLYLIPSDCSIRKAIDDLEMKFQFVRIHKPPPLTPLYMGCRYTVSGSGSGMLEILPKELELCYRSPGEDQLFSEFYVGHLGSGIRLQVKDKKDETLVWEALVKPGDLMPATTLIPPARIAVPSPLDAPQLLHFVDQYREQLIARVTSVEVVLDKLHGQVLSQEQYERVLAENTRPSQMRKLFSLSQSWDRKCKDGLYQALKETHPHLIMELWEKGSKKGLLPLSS
Sequence of Cytochrome P450 2D6 (P10635 whole entry): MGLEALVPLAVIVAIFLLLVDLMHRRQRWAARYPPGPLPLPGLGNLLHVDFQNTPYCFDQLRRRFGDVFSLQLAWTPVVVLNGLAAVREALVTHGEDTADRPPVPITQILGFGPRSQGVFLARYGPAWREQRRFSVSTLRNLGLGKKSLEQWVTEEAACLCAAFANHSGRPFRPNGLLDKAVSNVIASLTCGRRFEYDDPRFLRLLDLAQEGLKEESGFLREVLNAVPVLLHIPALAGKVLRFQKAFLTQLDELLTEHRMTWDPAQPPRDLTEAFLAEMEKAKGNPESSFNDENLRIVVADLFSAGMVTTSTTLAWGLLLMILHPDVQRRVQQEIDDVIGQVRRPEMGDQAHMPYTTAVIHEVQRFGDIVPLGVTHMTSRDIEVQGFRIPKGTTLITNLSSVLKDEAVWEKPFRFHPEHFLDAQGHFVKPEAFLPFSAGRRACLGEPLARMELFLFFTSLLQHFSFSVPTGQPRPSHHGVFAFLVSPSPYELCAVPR
Sequence of Neurotensin receptor type 1 (P30989 whole entry): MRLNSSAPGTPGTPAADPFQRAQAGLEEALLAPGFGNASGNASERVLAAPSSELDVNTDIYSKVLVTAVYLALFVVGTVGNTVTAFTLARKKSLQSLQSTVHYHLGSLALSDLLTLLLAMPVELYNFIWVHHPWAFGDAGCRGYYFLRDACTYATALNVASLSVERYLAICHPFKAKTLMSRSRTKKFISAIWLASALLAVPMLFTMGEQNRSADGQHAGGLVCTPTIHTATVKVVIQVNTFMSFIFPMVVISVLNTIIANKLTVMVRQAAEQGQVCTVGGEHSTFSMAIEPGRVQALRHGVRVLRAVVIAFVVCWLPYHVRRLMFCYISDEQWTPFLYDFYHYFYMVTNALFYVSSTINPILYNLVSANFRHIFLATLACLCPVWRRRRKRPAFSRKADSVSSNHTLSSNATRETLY

- EC50 [1]: 0.841 µM (active)
- AC50 (Cytochrome P450 2C19): 7.08 µM (inconclusive)
- EC50 [2]: 0.09 µM (active)
- AC50 (Cytochrome P450 2D6): 25.1 µM (inconclusive)
SMILES: Cc1cc(OCCNCCO)cc(C)c1Cl

- IC50 (Coagulation factor XII): > 50 µM (inactive)
SMILES: COc1ccc(NC(=O)CSc2nnc(CNC(=O)COc3ccc(Cl)cc3)o2)c(OC)c1

SMILES: O=C(NCCCc1ccccc1)c1ccccc1O
- IC50 (Saccharomyces cerevisiae): 11.5 µM (active)
- IC50 [3]: 13.1 µM (active)

- IC50 [4]: 20 µM (inactive)
SMILES: N#CC(C#N)=Cc1cccn1S(=O)(=O)c1ccc(F)cc1F

SMILES: CC1CCC(C(C)C)C(OC(=O)Cn2c(COc3ccccc3)[n+](C)c3ccccc32)C1 (configuration not stated)
- AC50 [5]: 3.26 µM (active)
- EC50 [6]: 14 µM (active)
- EC50 [7]: 0.588 µM (active)
- AC50 [8]: 6.69 µM (active)
- AC50 [9]: 6.35 µM (active)
- EC50 [10]: > 32 µM (inactive)
- EC50 (HEK293 [11]): > 54.7 µM (inactive)
- EC50 (Insulin-degrading enzyme [12]): > 54.7 µM (inactive)
- EC50 [13]: > 60 µM (not active)
- AC50 [14]: 8.6 µM (active)
- EC50 (Insulin-degrading enzyme [15]): > 54.7 µM (inactive)
- IC50 (HEK293 [16]): 17.4 µM (inactive)
- AC50 [17]: 6.94 µM (active)
- AC50 (INS1): 6.26 µM (active)
